Data taken from US4162324A, “Antibiotics 890A1 and 890A3” (Merck & Co., Inc., priority 1977, dated 1979).

Key:
[1] = system: Alcaligenes faecalis ATCC 213; assay: In vitro antibacterial spectrum profile, zone of inhibition; format: cell-based; settings: ATCC213, 33 μg/ml, read-out: Inhib. Zone Diam.
Protocol: (§1) The test to determine the antibiotic spectrum profile is carried out by application of a 0.015 ml. droplet on the surface of a 100×15 mm. petri plate containing 5 ml. of seeded nutrient agar and 0.2% yeast extract. The antibiotic 890A1 is tested at a level of 33 μg/ml. and the antibiotic 890A3 is tested at a level of 182 μg/ml.

Bacillus sp. MB-633 = assay: as above; format: cell-based; settings: SP.MB633, 33 μg/ml, read-out: Inhib. Zone Diam.
Protocol: as §1

[2] = system: Corynebacterium pseudoidph. ATCC 9742; assay: as above; format: cell-based; settings: ATCC9742, 33 μg/ml, read-out: Inhib. Zone Diam.
Protocol: as §1

[3] = system: Proteus vulgaris ATCC 21100; assay: as above; format: cell-based; settings: ATCC21100, 33 μg/ml, read-out: Inhib. Zone Diam.
Protocol: as §1

Proteus vulgaris MB-1012 = assay: as above; format: cell-based; settings: MB1012, 33 μg/ml, read-out: Inhib. Zone Diam.
[4] = system: Pseudomonas aeruginosa MB-979; assay: as above; format: cell-based; settings: MB979, 33 μg/ml, read-out: Inhib. Zone Diam.
[5] = system: Serratia marcescens ATCC 990; assay: as above; format: cell-based; settings: ATCC990, 33 μg/ml, read-out: Inhib. Zone Diam.
[6] = system: Staphlococcus aureus ATCC 6538 P; assay: as above; format: cell-based; settings: 33 μg/ml; read-out: Inhib. Zone Diam.
[7] = system: Bacillus subtilis ATCC 6633; assay: as above; format: cell-based; settings: ATCC6633, 33 μg/ml, read-out: Inhib. Zone Diam.
Sarcina lutea ATCC 9341 = assay: as above; format: cell-based; settings: Micrococcus luteus, ATCC9341; 33 μg/ml; read-out: Inhib. Zone Diam.
[8] = system: Staphylococcus aureus MB-698; assay: as above; format: cell-based; settings: MB698, 33 μg/ml, read-out: Inhib. Zone Diam.
[9] = system: Streptococcus faecalis MB-753; assay: as above; format: cell-based; settings: Enterococcus faecalis, MB753; 33 μg/ml; read-out: Inhib. Zone Diam.
[10] = system: Brucella bronchiseptica ATCC 4617; assay: microbe, parasite or virus in culture; format: cell-based; settings: Bordetella bronchiseptica, ATCC4617, read-out: Inhib. Zone Diam.
[11] = system: Salmonella gallinarum MB-1287; assay: In vitro antibacterial spectrum profile, zone of inhibition; format: cell-based; settings: Salmonella enterica, 33 μg/ml, read-out: Inhib. Zone Diam.
[12] = system: Vibrio percolans ATCC 8461; assay: as above; format: cell-based; settings: Comamonas terrigena, ATCC8461, read-out: Inhib. Zone Diam.
[13] = system: Xanthomonas vesicatoria MB-815; assay: as above; format: cell-based; settings: MB815, 33 μg/ml, read-out: Inhib. Zone Diam.
Escherichia coli MB-1418 = assay: as above; format: cell-based; settings: MB1418, read-out: Inhib. Zone Diam.
[14] = system: Pseudomonas stutzeri ATCC 11607; assay: as above; format: cell-based; settings: Stutzerimonas stutzeri, ATCC11607; 33 μg/ml; read-out: Inhib. Zone Diam.
[15] = system: Klebsiella pneumoniae MB-1264; assay: as above; format: cell-based; settings: MB1264, read-out: Inhib. Zone Diam.
[16] = system: Aerobacter aerogenes MB-835; assay: as above; format: cell-based; settings: Klebsiella aerogenes, MB835; 33 μg/ml; read-out: Inhib. Zone Diam.
[17] = system: Erwinia atroseptica ATCC 4466; assay: as above; format: cell-based; settings: Pectobacterium atrosepticum, ATCC4466; 33 μg/ml; read-out: Inhib. Zone Diam.
[18] = system: Pseudomonas aeruginosa MB-2824; assay: as above; format: cell-based; settings: MB2824, 33 μg/ml, read-out: Inhib. Zone Diam.
[19] = system: Escherichia coli ATCC 9637; assay: In vitro antibacterial spectrum profile, zone of inhibition, synthetic medium; format: cell-based; settings: ATCC9637, read-out: Inhib. Zone Diam.
[20] = system: Streptococcus faecium MB-2820; assay: In vitro antibacterial spectrum profile, zone of inhibition; format: cell-based; settings: Enterococcus faecium, MB2820; 33 μg/ml; read-out: Inhib. Zone Diam.
[21] = system: Streptococcus agalactiae MB-2875; assay: as above; format: cell-based; settings: MB2875, read-out: Inhib. Zone Diam.
[22] = system: Vibrio percolans resistant to ceph. C MB-2566; assay: as above; format: cell-based; settings: Comamonas terrigena, read-out: Inhib. Zone Diam.
[23] = system: Proteus vulgaris (episome) MB-2112; assay: as above; format: cell-based; settings: 33 μg/ml, read-out: Inhib. Zone Diam.
[24] = system: Proteus mirabilis MB-3126; assay: as above; format: cell-based; settings: MB3126, 33 μg/ml, read-out: Inhib. Zone Diam.
[25] = system: Vibrio percolans ATCC 8461 + 2 × 10^5 units/ml penicillinase; assay: In vitro antibacterial spectrum profile, zone of inhibition, with penicillinase; format: cell-based; settings: Comamonas terrigena, ATCC8461, 33 μg/ml, read-out: Inhib. Zone Diam.
[26] = system: Salmonella schottmuellari MB-2837; assay: In vivo protection of intraperitoneally infected mice; set-up: species or system Female white Swiss mice; settings: ip; at infection and 6 hours later; calculated on the projected purity of 890A1 at 5500 units/mg
Protocol: (§2) In determining the in vivo activity, antibiotic 890A1 is dissolved in and diluted with 0.15M NaCl, 0.01M sodium phosphate, pH 7.0, to provide five fourfold concentrations of drug for testing. Female white Swiss mice, averaging about 21 g. in weight, were infected intraperitoneally with the test organism suspended in broth. The numbers of organisms injected were determined by standard plate-count techniques. At the time of infection and again 6 hours later, certain of the mice were treated intraperitoneally with the antibiotic. Five mice were used for each concentration of drug tested. An additional two mice, not infected, were treated with the antibiotic to determine whether the amount of agent injected was toxic. Controls of five mice for each of several dilutions of the infecting culture were included in each test in order to calculate the numbers of organisms that were lethal to 50% of the infected, untreated mice (LD50). This calculation was made using survival data of the seventh day after infection, at which time the amount of drug that should protect 50% of the infected mice (ED50) also was calculated.
All animals receiving this challenge and not treated with antibiotic died within 48 hours of the infection.

Electrophoresis = format: physicochemical; settings: neutral pH
Solubility in water = format: physicochemical; settings: sodium salt
[27] = system: gram-negative and gram-positive organisms; assay: In vivo activity; set-up: species or system Female white Swiss mice; settings: mouse
Protocol: as §2

[28] = system: Vibrio percolans ATCC 8461; assay: Bioassay, agar plate disc-diffusion method
[29] = system: Vibrio percolans (ATCC 8461); assay: Assay procedure for determining "890 Assay Units" (disc-plate assay, cephaloridine standard); format: cell-based
Protocol: The conventional disc-plate assay procedure is employed and the discs are 1/2 inch in diameter. The routinely poured 10 ml./plate inoculated with Vibrio percolans (ATCC 8461) is used and the standard is cephaloridine. Four concentrations of cephaloridine constitute the standard -- 3.12, 6.25. 12.5 and 25 mcg per ml. with the 12.5 mcg per ml. as a reference solution. The zone diameters on a 5 ml. plate for the standard are as follows:
A unit is defined as the amount of antibiotic-producing a 25 mm. zone of inhibition on a 5 ml. plate. Therefore, in this assay a concentration of 12.5 mcg per ml. of cephaloridine is considered equivalent to 1 unit of 890A. Since the slope of the line for cephaloridine is 4.0 calculations of the potency of a sample are made using a slope of 4.0.

[30] = 1 unit/ml. = the concentration which produces a 25 mm zone of inhibition

With `CC(=O)NCCSC1=C(C(=O)O)N2C(=O)C(C(C)O)C2C1` (centres unmarked) [Antibiotic 890A1] as the compound, how does the zone of inhibition at 33 µg/mL [1] read?
The zone of inhibition at 33 µg/mL was 27 mm.

And the zone of inhibition at 33 µg/mL (Bacillus sp. MB-633)?
The zone of inhibition at 33 µg/mL was 40 mm.

What about the zone of inhibition at 33 µg/mL [2] of the same compound?
Its zone of inhibition at 33 µg/mL is 34 mm.

And the zone of inhibition at 33 µg/mL [3]?
Its zone of inhibition at 33 µg/mL is 34 mm.

What about the zone of inhibition at 33 µg/mL (Proteus vulgaris MB-1012) of the same compound?
The zone of inhibition at 33 µg/mL was 21 mm.

And the zone of inhibition at 33 µg/mL [4]?
Its zone of inhibition at 33 µg/mL is 0 mm.

What about the zone of inhibition at 33 µg/mL [5] of the same compound?
The zone of inhibition at 33 µg/mL was 26 mm.

What about the zone of inhibition at 33 µg/mL [6] of the same compound?
The zone of inhibition at 33 µg/mL was 35 mm.

What about the zone of inhibition at 33 µg/mL [7] of the same compound?
The zone of inhibition at 33 µg/mL was 38 mm.

What about the zone of inhibition at 33 µg/mL (Sarcina lutea ATCC 9341) of the same compound?
Its zone of inhibition at 33 µg/mL is 38 mm.

And the zone of inhibition at 33 µg/mL [8]?
The zone of inhibition at 33 µg/mL was 28 mm.

And the zone of inhibition at 33 µg/mL [9]?
Its zone of inhibition at 33 µg/mL is 17 mm.

And the zone of inhibition at 33 µg/mL [10]?
Its zone of inhibition at 33 µg/mL is 22 mm.

And the zone of inhibition at 33 µg/mL [11]?
Its zone of inhibition at 33 µg/mL is 33 mm.

And the zone of inhibition at 33 µg/mL [12]?
The zone of inhibition at 33 µg/mL was 34 mm.

And the zone of inhibition at 33 µg/mL [13]?
The zone of inhibition at 33 µg/mL was 26 mm.

And the zone of inhibition at 33 µg/mL (Escherichia coli MB-1418)?
Its zone of inhibition at 33 µg/mL is 27 mm.

What about the zone of inhibition at 33 µg/mL [14] of the same compound?
Its zone of inhibition at 33 µg/mL is 10 mm.

And the zone of inhibition at 33 µg/mL [15]?
Its zone of inhibition at 33 µg/mL is 27 mm.

And the zone of inhibition at 33 µg/mL [16]?
Its zone of inhibition at 33 µg/mL is 26 mm.

And the zone of inhibition at 33 µg/mL [17]?
The zone of inhibition at 33 µg/mL was 20 mm.

What about the zone of inhibition at 33 µg/mL [18] of the same compound?
Its zone of inhibition at 33 µg/mL is 0 mm.

What about the zone of inhibition at 33 µg/mL [19] of the same compound?
The zone of inhibition at 33 µg/mL was 27 mm.

What about the zone of inhibition at 33 µg/mL [20] of the same compound?
Its zone of inhibition at 33 µg/mL is 18 mm.

What about the zone of inhibition at 33 µg/mL [21] of the same compound?
The zone of inhibition at 33 µg/mL was 36 mm.

What about the zone of inhibition at 33 µg/mL [22] of the same compound?
The zone of inhibition at 33 µg/mL was 15 mm.

And the zone of inhibition at 33 µg/mL [23]?
The zone of inhibition at 33 µg/mL was 32 mm.

And the zone of inhibition at 33 µg/mL [24]?
Its zone of inhibition at 33 µg/mL is 23 mm.

What about the zone of inhibition at 33 µg/mL [25] of the same compound?
The zone of inhibition at 33 µg/mL was 10 mm.

What about the “ED50 × 2 doses” value [26] of the same compound?
Its value is 3 µg.

What about the movement on electrophoresis (Electrophoresis) of the same compound?
Its movement on electrophoresis is “acidic substance which moves toward the positive pole on electrophoresis at neutral pH”.

What about the solubility in water (Solubility in water) of the same compound?
The solubility in water was “very soluble in water”.

What about the in vivo activity [27] of the same compound?
Its in vivo activity is “exhibits in vivo activity against gram-negative and gram-positive organisms”.

What about the “activity of the solution tested in vivo” value [28, 30] of the same compound?
The value was 908 Units/ml.

What about the “potency of 890A1 used in the in vivo test” value [28, 30] of the same compound?
The value was 5.5 units per μg.

And the antibiotic potency ([28]; 890A1 value defined as standard)?
The antibiotic potency was 250 units per HAEA300 unit.

Which results are given for `O=C(Cc1cccs1)N[C@@H]1C(=O)N2C(C(=O)[O-])=C(C[n+]3ccccc3)CS[C@H]12` [cephaloridine]?
slope of the line [29]: 4.0; zone of inhibition at 3.12 µg/mL ([29]; Comamonas terrigena, ATCC8461, 3.12 mcg/ml, 5 ml. plate, read-out: Zone Diameter): 16.8 mm; zone of inhibition at 6.25 µg/mL ([29]; Comamonas terrigena, ATCC8461, 6.25 mcg/ml, 5 ml. plate, read-out: Zone Diameter): 22.3 mm; zone of inhibition at 12.5 µg/mL ([29]; Comamonas terrigena, ATCC8461, 12.5 mcg/ml, 5 ml. plate, read-out: Zone Diameter): 25 mm; zone of inhibition at 25 µg/mL ([29]; Comamonas terrigena, ATCC8461, 25 mcg/ml, 5 ml. plate, read-out: Zone Diameter): 29.6 mm
